Source: US11141428B2, “Octasaccharides and uses thereof” (Academia Sinica, priority 2017, dated 2021)
Entries after “also recorded” stand apart in the source; their conditions may differ.

Columns and labels:
RPTPσ = experiment: Activation / phosphorylation of RPTPσ by sulfated octasaccharides (Western blot, densitometric analysis, FIG. 1a); format: cell-based; conditions: 10 μg/mL, 15 min; FIG. 1 panel a
Procedure: SDS-PAGE and Western blotting. Cells were lysed with Tris-buffered saline (TBS), 1% Triton-X, Complete Mini Protease Inhibitor Cocktail (Roche) and Phostop Phosphatase Inhibitor Cocktail (Roche). Lysates were incubated on ice for 10 min and centrifuged at 20000 g for 10 min at 4° C. Supernatants were mixed with 4×SDS sample buffer and boiled for 5 min.
All samples were run on 5-20% gradient gel (Wako) and transferred to nitrocellulose membranes (GE Healthcare). After blocking with 5% non-fat dry milk or BSA, the membranes were blotted with primary antibodies. Primary antibodies used in this work included anti-EGFR pY1174 (Invitrogen, 44794G), anti-HA (Roche, clone 3F10), 4G10 Platinum (Millipore, 05-1050) and anti-β-actin (Sigma Aldrich, clone AC-15). All primary antibodies were used at 1:1000 dilution. All secondary antibodies conjugated with horseradish peroxidase were from Jackson ImmunoResearch and used at 1:3000 dilution. Membranes were developed with Novex ECL (Invitrogen) or ECL Plus Substrate (Pierce).

adult DRG neurons = experiment: Rescue of dystrophic endballs and axonal growth of adult DRG neurons across an aggrecan gradient (FIG. 1b, c); format: cell-based, mice; conditions: for promotion of axonal growth / penetration across an aggrecan gradient / rescue / prevention of dystrophic endball formation: 20 μg/mL, adult DRG neurons on aggrecan gradient, FIG. 1 panel b; for axons invading the aggrecan rim that could pass the rim of aggrecan gradient: FIG. 1 panel c, left, comparable to chondroitinase ABC (C-ABC) digestion of chondroitin sulfate
Procedure: Preparation of an aggrecan gradient spot on coverslip. Glass coverslips were coated with 100 μg/mL PLL overnight at room temperature, rinsed with sterile water and dried completely. Onto the coverslip, 2 μL of an aggrecan (0.4 mg/mL) and laminin (10 μg/mL) mixture in Ca^2+- and Mg^2+-free Hank's balanced salt solution (HBSS) (Invitrogen) was spotted and dried. Then, the coverslip was bathed in laminin ([…]) solution in HBSS until just before (i.e., at least 3 h before) cell plating at 37° C. The laminin solution was subsequently removed, and the cells were plated without allowing the surface of the coverslip to dry.
DRG neuron primary culture. DRGs were dissected out of C57BL/6J (SLC) adult (12-16 weeks) female mice. The roots of isolated DRGs were trimmed in cold HBSS, collected in a centrifuge tube and spun down for 1 min at low speed (500 rpm). Then, the HBSS was removed. The tissues were incubated in collagenase-II (4 mg/mL)/dispase-II (4.67 mg/mL) in HBSS for 15 min at 37° C. After spinning down at low speed, the tissues were rinsed once with pre-warmed culture media consisting of Neurobasal-A (Gibco) with Gluta-MAX (Gibco), Anti-Anti (Gibco) and B-27 (Invitrogen), then spun down and triturated in fresh media. To refine neurons, the cell suspension was carefully overlaid onto 15% bovine serum albumin (BSA) in HBSS and spun down for 5 min at high speed (1000 rpm), and the supernatant was gently removed. The DRG cells were rinsed once and suspended in the media. The DRG cells were plated onto coverslips in the media.
Immunostaining. DRG neurons were fixed in ice-cold methanol for 15 min at −30° C. The fixed samples were then rinsed three times with phosphate buffered saline (PBS) and incubated in a blocking solution containing 5% (v/v) goat serum (Vector) and 0.2% (v/v) Triton-X 100 (Sigma) for 90 min at room temperature. For neuron-specific class III β-tubulin (Tuj1) staining, samples were bathed in 1:1000 mouse monoclonal Tuj1 (Covance, 801201) diluted in PBS containing 2.5% (v/v) normal goat serum overnight at 4° C. After three washes with PBS, neurons were incubated with 1:250 Alexa488-conjugated goat anti-mouse IgG (Molecular Probes, A11001) dissolved in PBS containing 2.5% (v/v) goat serum for 2 h at room temperature.

5-Aminopentyl (2-deoxy-2-sulfamido-α-D-glucopyranosyl)-(1→4)-α-L-idopyranosiduronyl-(1→4)-(2-deoxy-2-sulfamido-α-D-glucopyranosyl)-(1→4)-β-D-glucopyranosiduronyl-(1→4)-(2-deoxy-2-sulfamido-α-D-glucopyranosyl)-(1→4)-α-L-idopyranosiduronyl-(1→4)-(2-de oxy-2-sulfamido-α-D-glucopyranosyl)-(1→4)-β-D-glucopyranosiduronate [HS10]
activation of RPTPσ (inducing phosphorylation of RPTPσ) (RPTPσ): capable of inducing phosphorylation of RPTPσ

NCCCCCO[C@@H]1O[C@H](C(=O)O)[C@@H](O[C@H]2O[C@H](CO)[C@@H](O[C@@H]3O[C@@H](C(=O)O)[C@@H](O[C@H]4O[C@H](CO)[C@@H](O[C@@H]5O[C@H](C(=O)O)[C@@H](O[C@H]6O[C@H](CO)[C@@H](O[C@@H]7O[C@@H](C(=O)O)[C@@H](O[C@H]8O[C@H](CO)[C@@H](O)[C@H](O)[C@H]8NS(=O)(=O)O)[C@H](O)[C@H]7OS(=O)(=O)O)[C@H](O)[C@H]6NS(=O)(=O)O)[C@H](O)[C@H]5OS(=O)(=O)O)[C@H](O)[C@H]4NS(=O)(=O)O)[C@H](O)[C@H]3OS(=O)(=O)O)[C@H](O)[C@H]2NS(=O)(=O)O)[C@H](O)[C@H]1OS(=O)(=O)O [HS14]
promotion of axonal growth / penetration across an aggrecan gradient (adult DRG neurons): promoted axonal growth | rescue / prevention of dystrophic endball formation (adult DRG neurons): rescued dystrophic endball formation | promotion of axonal growth / penetration across an aggrecan gradient (adult DRG neurons; listed as HS 14): facilitated their penetration across the gradient | rescue / prevention of dystrophic endball formation (adult DRG neurons; listed as HS 14): prevent formation of dystrophic endballs | axons invading the aggrecan rim that could pass the rim of aggrecan gradient (adult DRG neurons): Nearly half | activation of RPTPσ (inducing phosphorylation of RPTPσ) (RPTPσ): capable of inducing phosphorylation of RPTPσ; also recorded: activated RPTPσ

5-Aminopentyl (2-deoxy-2-sulfamido-6-O-sulfonato-α-D-glucopyranosyl)-(1→4)-α-L-idopyranosiduronyl-(1→4)-(2-deoxy-2-sulfamido-6-O-sulfonato-α-D-glucopyranosyl)-(1→4)-β-D-glucopyranosiduronyl-(1→4)-(2-deoxy-2-sulfamido-6-O-sulfonato-α-D-glucopyranosyl)-(1→4)-α-L-idopyranosiduronyl-(1→4)-(2-deoxy-2-sulfamido-6-O-sulfonato-α-D-glucopyranosyl)-(1→4)-β-D-glucopyranosiduronate [HS16]
promotion of axonal growth / penetration across an aggrecan gradient (adult DRG neurons): facilitated their penetration across the gradient | rescue / prevention of dystrophic endball formation (adult DRG neurons): prevent formation of dystrophic endballs | axons invading the aggrecan rim that could pass the rim of aggrecan gradient (adult DRG neurons): Nearly half
